In patent US12564596B2, “Agents and methods for modulating pathogen activity” (Griffith University, priority 2018, dated 2026):

Columns and labels:
[1] = tested on: N. gonorrhoeae in infected PEX cells; test: Survival assay of N. gonorrhoeae in infected PEX cells; format: cell-based, Neisseria gonorrhoeae
Source text: N. gonorrhoeae strains used in survival assays included MS11 Schoolnik et al (1984, supra), Segal et al (1985, supra) and 1291 Apicella et al (1974, J. Infect Dis. 130(6):619-25), Dudas and Apicella (1988, Infect Immun. 56(2):499-504), which are commonly used to study gonococcal pathogenesis. Also examined were a panel of low-passage clinical isolates (FIG. 14; i.e., N. gonorrhoeae strains LT38097, UT38885, PID-26, and SK92-679). Strains 1291 and LT38097 are male urethral isolates; strains MS11 and UT38885 were obtained from women with uncomplicated gonococcal cervicitis, strain PID-26 was obtained from a patient with pelvic inflammatory disease; and strain SK92-679 is a blood isolate from a patient with disseminated infection. Antibiotic-resistant N. gonorrhoeae strains tested were obtained from Public Health England and comprised WHO-L, WHO-M, WHO-X (H041), WHO-Y (F89), and WHO-Z (A8806), see FIG. 15. For use, bacteria were harvested from overnight (37° C., 5% CO2), GC-IsoVitaleX agar plate cultures and enumerated spectrophotometrically, as previously described Edwards et al (2000, Infect Immun 68(9):5354-63). Infection studies were performed using a multiplicity of infection of 100 Edwards et al (2000, Infect Immun 68(9):5354-63).
PEX cells were challenged with the noted N. gonorrhoeae strains for 90 min. For single dose survival assays, the infection medium was then removed, cells were rinsed thrice, and fresh medium containing 1% DMSO (vehicle control), carbamazepine ([…], as noted), or ceftriaxone (0.1 μg/mL or 0.5 μg/mL, positive control) was added. Infections were then allowed to proceed for an additional 24 h or 48 h. At the indicated times post-treatment, the infection medium was removed, the PEX cell monolayers were rinsed thrice, lysed, and viable N. gonorrhoeae were enumerated by counting colony forming units after plating serial dilutions of the PEX cell lysates (for example see 12). In some experiments (i.e., two dose survival assays for example see FIG. 13), a second dose of carbamazepine was added at 24 hours-post addition of the first carbamazepine dose. Infections were then allowed to proceed for an additional 24 h before plating the PEX cell lysate, as above. For either assay, the percentage of N. gonorrhoeae that survived carbamazepine or antibiotic treatment was determined as a function of bacteria that survived DMSO (vehicle control) treatment (set to 100%). […] To investigate whether the small percentage of the surviving bacterial cells have developed resistance to the treatment, sequential infection assays were conducted. Bacteria were harvested from the CFU count plates and then used to inoculate a new assay. […] All assays were performed in triplicate on 3 separate occasions with the noted bacterial strains. A Kruskal-Wallis k-sample analysis of variance was used to determine the statistical significance of bacterial survival.
The ability of a single dose of methyldopa was evaluated to inhibit survival of low-passage N. gonorrhoeae isolates in PEX cells challenged with those isolates. To establish infection, PEX cells were challenged with N. gonorrhoeae for 90 min using the noted low-passage isolates. Infections were then allowed to proceed for an additional 24 h or 48 h in the presence or absence of DMSO (1%, vehicle control), methyldopa (10 μM, Md), or ceftriaxone (0.5 μg/mL, positive control, Cfx).

N. gonorrhoeae strains = test: Well diffusion assay in the absence of human cells; design: species or system Neisseria gonorrhoeae; conditions: GC-agar, overnight 37° C.; 100 μM to 100 μM [sic]
Method: (§1) FIG. 22 is a graphical representation showing the effect of carbamazepine on N. gonorrhoeae in the absence of human cells. Well diffusion assays were performed in which N. gonorrhoeae strains were spread uniformly across the surface of GC-agar plates at a culture density of 10^7 bacterial per mL. Wells were then punctured within the agar surface to which carbamazepine (Cz; […], as noted), 0.2 μg/mL ceftriaxone (Cfx), 10 μg/mL ciprofloxacin (Cip), or 1% DMSO (vehicle control) were added. […] For agar plates in which a ZOI was not visible, data were recorded as the diameter of the well (6 mm), as indicated. Assays were performed in triplicate on 3 separate occasions. Data are presented as the mean and variance of the average values obtained for each assay; statistical significance was determined using a Student's t-test. […] This is consistent with a CR3-dependent, host-mediated mechanism of killing.
as §1, with “23” for “22”, “methyldopa” for “carbamazepine”, “methyldopa (Md;” for “carbamazepine (Cz;”
FIG. 24 is a graphical representation showing the effect of flufenamic acid on N. gonorrhoeae in the absence of human cells. Well diffusion assays were performed in which N. gonorrhoeae strains were spread uniformly across the surface of GC-agar plates at a culture density of 10^7 bacterial per mL. Wells were then punctured within the agar surface to which flufenamic acid ([…], as noted), 0.2 μg/mL ceftriaxone, 10 μg/mL ciprofloxacin, or 1% DMSO (vehicle control) were added. […] For agar plates in which a ZOI was not visible, data were recorded as the diameter of the well (6 mm), as indicated. Assays were performed in triplicate on 3 separate occasions. Data are presented as the mean and variance of the average values obtained for each assay; statistical significance was determined using a Student's t-test.

[2] = tested on: primary T-cell derived WITO HIV interaction with human rI-domain; test: SPR 1:1 competition assay, WITO HIV binding to rI-domain; conditions: for % inhibition: 1:1 competition, 1 μM, 1 µM
Method: For competition analysis SPR of the HIV interaction with human rI-domain, primary T-cell derived WITO HIV was immobilized on a Cl sensor chip surface. Human rI-domain, drug or drug and human rI-domain were flowed at 1 μM over the immobilized HIV and the response units of the interactions were recorded. Any drug that could not compete with the virus or pilin binding to the rI-domain was also discarded. Remaining drugs were evaluated for known safety in humans and known therapeutic concentrations to determine if the drug would be tested, and at what concentrations, in in vitro cell models. All SPR sensorgrams and results plots were analyzed with Biacore S200 Evaluation Software (GE Healthcare Life Sciences).

`NC(=O)N1c2ccccc2C=Cc2ccccc21` [carbamazepine, 5H-dibenzo[b,f]azepine-5-carboxamide] was tested. Which killing of gonococci ([1]; by 24 hours, concentrations of 10 μM or higher) did it give?
Its killing of gonococci is “greater than 99.95%”.

And the gonococcal killing ([1]; low-passage isolates, 24 h, 10 μM single dose)?
The gonococcal killing was “Greater than 99%”.

What about the gonococcal killing ([1]; multidrug-resistant strains, 24 h, 10 μM single dose) of the same compound?
Its gonococcal killing is “Greater than 99%”.

And the gonococcal killing ([1]; strain MS11, by 24 h, single 100 nM dose)?
Its gonococcal killing is “Greater than 99%”.

And the gonococcal killing ([1]; strain MS11, by 48 h, 2 100 nM doses applied 24 h apart)?
The gonococcal killing was “greater than 99.95%”.

And the gonococcal killing ([1]; strain MS11, concentrations greater than or equal to 10 nM, 24 h or 48 h)?
Its gonococcal killing is “Greater than 98%”.

What about the gonococcal killing ([1]; strain MS11, sequential infection, following the second infection, 10 μM, 24 h) of the same compound?
The gonococcal killing was 100%.

What about the “effect on N. gonorrhoeae in the absence of human cells (zone of inhibition)” value (N. gonorrhoeae strains) of the same compound?
The value was “no effect”.

And the “% inhibition” value ([2]; listed as CARBAMAZEPINE)?
The value was 97.09%.

And the “% inhibition” value ([2]; listed as Carbamazepine)?
Its value is roughly 97%.

And the “Block HIV in SPR” value ([2]; direct competition SPR)?
Its value is “Yes”.

What about the “Drug RU” value ([2]; drug alone flowed at 1 μM over immobilized WITO HIV) of the same compound?
The value was 0.227 RU.

What about the “Pilin + Drug RU” value ([2]; drug and human rI-domain flowed at 1 μM, 1:1) of the same compound?
Its value is 1.772 RU.
